Measurements published in patent US9090599B2, “Heteroarylmethyl amides” (Hoffman-La Roche Inc., priority 2010, dated 2015).
Where two headings read alike, the source gives them in different places.

Key:
human CB2 receptor = target: T1, human CB2 receptor (Homo sapiens, UniProt P34972); assay: CB2 receptor affinity, [3H]-CP-55,940 displacement, HEK cell membranes; format: binding; conditions: 10 μM compound, radioligand [3H]-CP-55,940
T1 construct: expressed in transfected cells; host or cells: human embryonic kidney (HEK) cells, Semliki Forest Virus system, membrane preparations
Protocol: (§1) The affinity of the compounds of the invention for cannabinoid CB2 receptors was determined using membrane preparations of human embryonic kidney (HEK) cells in which the human CB2 receptor is transiently transfected using a Semliki Forest Virus system in conjunction with [^3H]-CP-55,940 as radioligand. After incubation of freshly prepared cell membrane preparation with the [^3H]-ligand, with or without addition of compounds of the invention, separation of bound and free ligand was performed by filtration over glass fiber filters. Radioactivity on the filter was measured by scintillation counting.
(§2) The ability of the compounds to displace the radioligand [^3H]-CP-55,940 was measured at a concentration of 10 μM and values provided as [% inhibition @ 10 μM] both for the CB 1 and CB2 receptor assay, The lower % inhibition is, the lower the likelihood of side effects based on CB1 or CB2 receptor inhibition is.

human CB1 receptor = target: T2, human CB1 receptor (Homo sapiens, UniProt P21554); assay: CB1 receptor affinity, [3H]-CP-55,940 displacement, HEK cell membranes; format: binding; conditions: read-out: CB1 receptor affinity [% inhibition @ 10 μM]
T2 construct: expressed in transfected cells; host or cells: human embryonic kidney (HEK) cells, Semliki Forest Virus system, membrane preparations
Protocol: as §1, with “cannabinoid” for “cannabinoid CB2”, “CB1” for “CB2”, “[3H]-CP-55,940” for “[^3H]-CP-55,940”
as §2

[1] = 10 μM compound, radioligand [3H]-CP-55,940

T1 sequence (P34972 whole entry): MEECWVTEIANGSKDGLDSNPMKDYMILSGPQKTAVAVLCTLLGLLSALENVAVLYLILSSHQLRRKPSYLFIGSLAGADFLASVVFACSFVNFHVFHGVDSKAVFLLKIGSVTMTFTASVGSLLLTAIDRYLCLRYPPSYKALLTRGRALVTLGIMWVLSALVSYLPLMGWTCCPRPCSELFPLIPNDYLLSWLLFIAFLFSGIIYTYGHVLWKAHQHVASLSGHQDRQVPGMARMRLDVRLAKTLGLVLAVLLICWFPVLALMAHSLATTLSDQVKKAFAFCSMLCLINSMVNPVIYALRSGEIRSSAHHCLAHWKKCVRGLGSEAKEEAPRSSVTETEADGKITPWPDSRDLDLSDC
T2 sequence (P21554 whole entry): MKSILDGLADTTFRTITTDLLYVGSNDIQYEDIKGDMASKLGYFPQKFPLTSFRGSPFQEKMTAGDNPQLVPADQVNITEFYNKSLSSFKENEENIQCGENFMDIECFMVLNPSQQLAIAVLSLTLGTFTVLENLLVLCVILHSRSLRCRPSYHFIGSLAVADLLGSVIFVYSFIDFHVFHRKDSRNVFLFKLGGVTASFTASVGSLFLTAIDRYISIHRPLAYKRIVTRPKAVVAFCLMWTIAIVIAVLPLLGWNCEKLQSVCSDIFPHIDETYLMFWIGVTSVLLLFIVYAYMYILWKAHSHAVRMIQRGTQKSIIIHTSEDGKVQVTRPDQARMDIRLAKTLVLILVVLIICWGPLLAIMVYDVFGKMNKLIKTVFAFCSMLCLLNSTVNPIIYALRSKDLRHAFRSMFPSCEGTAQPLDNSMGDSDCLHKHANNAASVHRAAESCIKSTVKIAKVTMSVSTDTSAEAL

Row | SMILES | inhibition at 10 µM (human CB2 receptor) | inhibition at 10 µM (human CB1 receptor; [1]) | inhibition at 10 µM (human CB1 receptor)
1 | O=C(NCc1nc(C(F)(F)F)no1)c1cnc(OC[C@H]2CCOC2)c(-c2ccc(Cl)cc2)c1 (stereo in doubt) [Example 104] | 9% | 39% | 
2 | O=C(NCc1nc(C(F)(F)F)no1)c1cnc(OC[C@@H]2CCOC2)c(-c2ccc(Cl)cc2)c1 (stereo in doubt) [Example 105, 5-(4-Chloro-phenyl)-6-[(RS)-1-(tetrahydro-furan-3-yl)methoxy]-N-(3-trifluoromethyl-[1,2,4]oxadiazol-5-ylmethyl)-nicotinamide] | 17% | 47% | 
3 | CCc1nc(CNC(=O)c2cnc(OCC3CC3)c(-c3ccc(Cl)cc3)c2)cs1 [Example 10, 5-(4-chloro-phenyl)-6-cyclopropylmethoxy-N-(2-ethyl-thiazol-4-ylmethyl)-nicotinamide] | 28% | 28% | 
4 | O=C(NCc1noc(C2CC2)n1)c1ncc(OCC2CC2)c(-c2ccc(Cl)cc2)n1 [Example 13, 4-(4-chloro-phenyl)-5-cyclopropylmethoxy-pyrimidine-2-carboxylic acid (5-cyclopropyl-[1,2,4]oxadiazol-3-ylmethyl)-amide] | 46% | 35% | 
5 | O=C(NCc1nc(C(F)(F)F)no1)c1ncc(OCC(F)(F)F)c(-c2ccc(Cl)cc2)n1 [Example 16, 4-(4-chloro-phenyl)-5-(2,2,2-trifluoro-ethoxy)-pyrimidine-2-carboxylic acid (3-trifluoromethyl-[1,2,4]oxadiazol-5-ylmethyl)-amide] | 15% | 38% | 
6 | O=C(NCc1nc(C2CC2)no1)c1ncc(OCC2CC2)c(-c2ccc(Cl)cc2)n1 [Example 17, 4-(4-chloro-phenyl)-5-cyclopropylmethoxy-pyrimidine-2-carboxylic acid (3-cyclopropyl-[1,2,4]oxadiazol-5-ylmethyl)-amide] | 45% | 48% | 
7 | O=C(NCc1nc(C(F)(F)F)no1)c1cc(-c2ccc(Cl)cc2)c(OCC2CC2)nn1 [Example 20, 5-(4-chloro-phenyl)-6-cyclopropylmethoxy-pyridazine-3-carboxylic acid (3-trifluoromethyl-[1,2,4]oxadiazol-5-ylmethyl)-amide] | 34% | 33% | 
8 | O=C(NCc1nc(C(F)(F)F)no1)c1ncc(OCC2CC2)c(-c2ccc(Cl)cc2)n1 [Example 21, 4-(4-chloro-phenyl)-5-cyclopropylmethoxy-pyrimidine-2-carboxylic acid (3-trifluoromethyl-[1,2,4]oxadiazol-5-ylmethyl)-amide] | 35% | 44% | 
9 | Cn1cc(Cl)c(CNC(=O)c2cnc(OCC(F)(F)F)c(-c3ccc(Cl)cc3)c2)n1 [Example 26, N-(4-Chloro-1-methyl-1H-pyrazol-3-ylmethyl)-5-(4-chloro-phenyl)-6-(2,2,2-trifluoro-ethoxy)-nicotinamide] | 22% | 40% | 
10 | O=C(NCc1cc(C2CC2)on1)c1cnc(OCC2CC2)c(-c2ccc(Cl)cc2)c1 [Example 30, 5-(4-chloro-phenyl)-N-(5-cyclopropyl-isoxazol-3-ylmethyl)-6-cyclopropyl-methoxy-nicotinamide] | 38% | 48% | 
11 | CC(C)c1cc(CNC(=O)c2cnc(OCC3CC3)c(-c3ccc(Cl)cc3)c2)no1 [Example 32, 5-(4-chlorophenyl)-6-(cyclopropylmethoxy)-N-((5-isopropylisoxazol-3-yl)methyl)nicotinamide] | 26% | 47% | 
12 | C[C@H](Oc1cnc(C(=O)NCc2nc(C(F)(F)F)no2)nc1-c1ccc(Cl)cc1)C(F)(F)F [Example 35, (S)-4-(4-chlorophenyl)-N-((3-(trifluoromethyl)-1,2,4-oxadiazol-5-yl)methyl)-5-(1,1,1-trifluoropropan-2-yloxy)pyrimidine-2-carboxamide] | 22% | 50% | 
13 | C[C@H](Oc1ncc(C(=O)NCc2nc(C(F)(F)F)no2)nc1-c1ccc(Cl)cc1)C(F)(F)F [Example 36, (S)-6-(4-chlorophenyl)-N-((3-(trifluoromethyl)-1,2,4-oxadiazol-5-yl)methyl)-5-(1,1,1-trifluoropropan-2-yloxy)pyrazine-2-carboxamide] | 14% | 36% | 
14 | O=C(NCc1noc(C2CC2)n1)c1cc(-c2ccc(Cl)cc2)c(OCC(F)(F)F)nn1 [Example 41, 5-(4-chloro-phenyl)-6-(2,2,2-trifluoro-ethoxy)-pyridazine-3-carboxylic acid (5-cyclopropyl-[1,2,4]oxadiazol-3-ylmethyl)-amide] | 19% | 23% | 
15 | O=C(NCc1cc(C(F)(F)F)on1)c1cc(-c2ccc(Cl)cc2)c(OCC(F)(F)F)cn1 [Example 45, 4-(4-chlorophenyl)-5-(2,2,2-trifluoroethoxy)-N-((5-(trifluoromethyl)isoxazol-3-yl)methyl)picolinamide] | -2% |  | 37%
16 | CC(C)c1nc(CNC(=O)c2cnc(OCC3CC3)c(-c3ccc(Cl)cc3)c2)no1 [Example 51] | 2% | 47% | 
17 | CC(C)c1nc(CNC(=O)c2ccc(OCC3CC3)c(-c3ccc(Cl)cc3)n2)cs1 [Example 52, 6-(4-chloro-phenyl)-5-cyclopropylmethoxy-pyridine-2-carboxylic acid (2-isopropyl-thiazol-4-ylmethyl)-amide] | 43% | 38% | 

Continued, in another order:

Row | inhibition at 10 µM (human CB2 receptor) | inhibition at 10 µM (human CB1 receptor; [1]) | SMILES | inhibition at 10 µM (human CB1 receptor)
18 | 43% | 30% | Cc1cc(CNC(=O)c2cc(-c3ccc(Cl)cc3)c(OCC(F)(F)F)cn2)no1 [Example 19, 4-(4-chlorophenyl)-N-((5-methylisoxazol-3-yl)methyl)-5-(2,2,2-trifluoro-ethoxy)picolinamide] | 
19 | 26% | 33% | O=C(NCc1cc(C2CC2)no1)c1cc(-c2ccc(Cl)cc2)c(OCC(F)(F)F)cn1 [Example 33, 4-(4-chlorophenyl)-N-((3-cyclopropylisoxazol-5-yl)methyl)-5-(2,2,2-trifluoroethoxy)picolinamide] | 
20 | 20% | 40% | COc1cc(CNC(=O)c2cc(-c3ccc(Cl)cc3)c(O[C@@H](C)C(F)(F)F)cn2)on1 [Example 37, (S)-4-(4-chlorophenyl)-N-((3-methoxyisoxazol-5-yl)methyl)-5-(1,1,1-trifluoropropan-2-yloxy)picolinamide] | 
21 | 21% | 26% | CC(C)c1nc(CNC(=O)c2cc(-c3ccc(Cl)cc3)c(OCC(F)(F)F)cn2)no1 [Example 39, 4-(4-chlorophenyl)-N-((5-isopropyl-1,2,4-oxadiazol-3-yl)methyl)-5-(2,2,2-trifluoroethoxy)picolinamide] | 
22 | 19% | 29% | CC(C)c1noc(CNC(=O)c2cc(-c3ccc(Cl)cc3)c(OCC(F)(F)F)cn2)n1 [Example 40, 4-(4-chlorophenyl)-N-((3-isopropyl-1,2,4-oxadiazol-5-yl)methyl)-5-(2,2,2-trifluoroethoxy)picolinamide] | 
23 | 14% | 37% | CC(C)c1cc(CNC(=O)c2cc(-c3ccc(Cl)cc3)c(OCC(F)(F)F)nn2)on1 [Example 43, 5-(4-chloro-phenyl)-6-(2,2,2-trifluoro-ethoxy)-pyridazine-3-carboxylic acid (3-isopropyl-isoxazol-5-ylmethyl)-amide] | 
24 | 16% | 46% | O=C(NCc1cc(C2CC2)no1)c1ccc(OCC(F)(F)F)c(-c2ccc(Cl)cc2)n1 [Example 47, 6-(4-chloro-phenyl)-5-(2,2,2-trifluoro-ethoxy)-pyridine-2-carboxylic acid (3-cyclopropyl-isoxazol-5-ylmethyl)-amide] | 
25 | 13% | 36% | O=C(NCc1cc(C2CC2)no1)c1cc(-c2ccc(Cl)cc2)c(OCC(F)(F)F)nn1 [Example 49, 5-(4-Chloro-phenyl)-6-(2,2,2-trifluoro-ethoxy)-pyridazine-3-carboxylic acid (3-cyclopropyl-isoxazol-5-ylmethyl)-amide] | 
26 | -5% | 38% | O=C(NCc1cc(C(F)(F)F)on1)c1cnc(OCC(F)(F)F)c(-c2ccc(Cl)cc2)c1 [Example 50, 5-(4-chloro-phenyl)-6-(2,2,2-trifluoro-ethoxy)-N-(5-trifluoromethyl-isoxazol-3-ylmethyl)-nicotinamide] | 
27 | 23% | 43% | CC(C)c1cc(CNC(=O)c2ccc(OCC(F)(F)F)c(-c3ccc(Cl)cc3)n2)no1 [Example 53, 6-(4-chloro-phenyl)-5-(2,2,2-trifluoro-ethoxy)-pyridine-2-carboxylic acid (5-isopropyl-isoxazol-3-ylmethyl)-amide] | 
28 |  | 18% | CC(C)(C)c1nc(CNC(=O)c2cc(-c3ccc(Cl)cc3)c(OCC(F)(F)F)nn2)cs1 [Example 65, 5-(4-chloro-phenyl)-6-(2,2,2-trifluoro-ethoxy)-pyridazine-3-carboxylic acid (2-tert-butyl-thiazol-4-ylmethyl)-amide] | 
